Measurements: patent US20230117034A1, “PYRAZOLOTRIAZINES” (Bayer Aktiengesellschaft, priority 2019, published 2023)

Tests used:
CDK12/CycK = CDK12/CycK (Homo sapiens, UniProt Q9NYV4); assay: CDK12/CycK high ATP kinase assay (TR-FRET, 2 mM ATP); type: biochemical; settings: 2 mM ATP (high ATP); median; read-out: CDK12/CyclinK, 2 mM ATP (high ATP), IC50-[mol/l] (median)
In short: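 Read-out is TR-FRET (Eu-anti-rabbit IgG, anti-phospho-c-Myc Ser62 antibody, streptavidin-XL665) after EDTA stop. Reaction ran 60 min at 22 °C using 1 µM biotin-peptide and high ATP (2 mM) with roughly 0.75 nM recombinant CDK12/CycK, after 15 min compound pre-binding; normalised emission ratios yield IC50.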

CDK2/CycE = target: T1, CDK2/CycE (Homo sapiens, UniProt P24941); assay: CDK2/CycE kinase assay (TR-FRET, 2 mM ATP); type: biochemical; settings: 2 mM ATP (high ATP); median; read-out: CDK2/CyclinE, 2 mM ATP (high ATP), IC50 (median)
T1 construct: purchased ProQinase GmbH (Freiburg, Germany); host or cells: insect cells (Sf9)
In short: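 Biotin-peptide phosphorylation (0.75 µM substrate, 2 mM ATP final, 25 min, 22 °C) by Sf9-expressed GST-CDK2/GST-CycE, after a 15-min compound pre-binding step. Inhibition scaled between enzyme-free (100%) and uninhibited (0%) wells.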

CDK12/CycK, sequence (Q9NYV4 with tags, fused parts or gaps): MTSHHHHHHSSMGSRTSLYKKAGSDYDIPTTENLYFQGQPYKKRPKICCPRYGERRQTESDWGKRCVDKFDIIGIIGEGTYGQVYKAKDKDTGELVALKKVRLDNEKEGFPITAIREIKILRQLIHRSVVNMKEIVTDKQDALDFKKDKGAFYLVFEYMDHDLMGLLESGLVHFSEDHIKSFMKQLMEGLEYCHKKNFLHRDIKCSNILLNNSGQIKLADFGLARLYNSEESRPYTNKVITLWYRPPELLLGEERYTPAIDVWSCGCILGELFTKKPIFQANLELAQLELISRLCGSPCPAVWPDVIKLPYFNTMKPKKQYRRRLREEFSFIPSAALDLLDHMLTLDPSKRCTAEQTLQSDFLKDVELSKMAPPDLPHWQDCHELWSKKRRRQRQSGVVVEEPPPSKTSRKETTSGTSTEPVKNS
CDK12/CycK, sequence (O75909 1-300 partner limits assumed): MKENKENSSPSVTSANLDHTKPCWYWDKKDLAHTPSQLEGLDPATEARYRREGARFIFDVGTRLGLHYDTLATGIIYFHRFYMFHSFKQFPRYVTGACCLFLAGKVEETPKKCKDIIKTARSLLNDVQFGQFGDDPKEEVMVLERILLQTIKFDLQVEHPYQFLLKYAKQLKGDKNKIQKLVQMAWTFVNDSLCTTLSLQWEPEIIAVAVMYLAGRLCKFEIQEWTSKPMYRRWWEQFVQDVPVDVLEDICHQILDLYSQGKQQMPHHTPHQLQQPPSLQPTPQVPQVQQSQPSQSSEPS

Compound `CC1(C)CN(c2nc(NCc3nc4ccccc4[nH]3)n3ncc(Br)c3n2)CCN1` [Example 216, N-[(1H-benzimidazol-2-yl)methyl]-8-bromo-2-(3,3-dimethylpiperazin-1-yl)pyrazolo[1,5-a][1,3,5]triazin-4-amine] has an IC50 (CDK12/CycK) greater than 4.59 µM and an IC50 (CDK2/CycE) of 15.2 µM.

For `Fc1cccc2[nH]c(CNc3nc(N4C[C@@H]5CCCN[C@@H]5C4)nc4c(C5CC5)cnn34)nc12` [Example 187, 8-cyclopropyl-N-[(4-fluoro-1H-benzimidazol-2-yl)methyl]-2-[(4aS,7aS)-octahydro-6H-pyrrolo[3,4-b]pyridin-6-yl]pyrazolo[1,5-a][1,3,5]triazin-4-amine], the IC50 (CDK12/CycK) was 6.5 µM and the IC50 (CDK2/CycE) was greater than 20 µM.

For `Brc1cnn2c(NCc3nc4ccccc4[nH]3)nc(N3C[C@H]4CCCN[C@H]4C3)nc12` [Example 199, N-[(1H-benzimidazol-2-yl)methyl]-8-bromo-2-[(4aR, 7aR)-octahydro-6H-pyrrolo[3,4-b]pyridin-6-yl]pyrazolo[1,5-a][1,3,5]triazin-4-amine], the IC50 (CDK12/CycK) was 14.8 µM and the IC50 (CDK2/CycE) was 5.17 µM.

`Fc1cccc2[nH]c(CNc3nc(N4CCNCC4)nc4c(C5CC5)cnn34)nc12` [Example 182, 8-cyclopropyl-N-[(4-fluoro-1H-benzimidazol-2-yl)methyl]-2-(piperazin-1-yl)pyrazolo[1,5-a][1,3,5]triazin-4-amine] showed an IC50 (CDK12/CycK) of 2.04 µM and an IC50 (CDK2/CycE) greater than 20 µM.

For `CC1(O)CCN(c2nc(NCc3nc4ccccc4[nH]3)n3ncc(Br)c3n2)C1` (stereo not drawn) [Example 225, 1-[4-(1H-benzimidazol-2-ylmethylamino)-8-bromo-pyrazolo[1,5-a][1,3,5]triazin-2-yl]-3-methyl-pyrrolidin-3-ol], the IC50 (CDK12/CycK) was 10.3 µM and the IC50 (CDK2/CycE) was 5.39 µM.

`OC1CCN(c2nc(NCc3nc4ccccc4[nH]3)n3ncc(Br)c3n2)CC1` [Example 17, 1-(4-{[(1H-benzimidazol-2-yl)methyl]amino}-8-bromopyrazolo[1,5-a][1,3,5]triazin-2-yl)piperidin-4-ol] gave an IC50 (CDK12/CycK) of 5.72 µM and an IC50 (CDK2/CycE) of 2.89 µM.

In the case of `Fc1ccc2[nH]c(CNc3nc(N4C[C@@H]5C[C@H]4CO5)nc4c(C5CC5)cnn34)nc2c1F` [Example 173, 8-cyclopropyl-N-[(4,5-difluoro-1H-benzimidazol-2-yl)methyl]-2-[(1S,4S)-2-oxa-5-azabicyclo[2.2.1]heptan-5-yl]pyrazolo[1,5-a][1,3,5]triazin-4-amine], the IC50 (CDK12/CycK) is reported as greater than 20 µM and the IC50 (CDK2/CycE) is reported as greater than 20 µM.

For `Clc1cnn2c(NCc3nc4ccccc4[nH]3)nc(N3CCOCC3)nc12` [Example 15, N-[(1H-benzimidazol-2-yl)methyl]-8-chloro-2-(morpholin-4-yl)pyrazolo[1,5-a][1,3,5]triazin-4-amine], the IC50 (CDK12/CycK) was 6.02 µM and the IC50 (CDK2/CycE) was 6.52 µM.

For `O[C@H]1C[C@@H](Nc2nc(NCc3nc4ccccc4[nH]3)n3ncc(Br)c3n2)C1` [Example 234, cis-3-[(4-{[(1H-benzimidazol-2-yl)methyl]amino}-8-bromopyrazolo[1,5-a][1,3,5]triazin-2-yl)amino]cyclobutan-1-ol], the IC50 (CDK12/CycK) was 4.86 µM and the IC50 (CDK2/CycE) was 2.73 µM.

With `CC(C)(O)CNc1nc(NCc2nc3ccccc3[nH]2)n2ncc(Br)c2n1` [Example 229, 1-[(4-{[(1H-benzimidazol-2-yl)methyl]amino}-8-bromopyrazolo[1,5-a][1,3,5]triazin-2-yl)amino]-2-methylpropan-2-ol] the IC50 (CDK12/CycK) was 5.51 µM and the IC50 (CDK2/CycE) was 1.46 µM.

Work on `CN1C[C@H]2C[C@@H]1CN2c1nc(NCc2nc3ccccc3[nH]2)n2ncc(Br)c2n1` [Example 218, N-[(1H-benzimidazol-2-yl)methyl]-8-bromo-2-[(1R,4R)-5-methyl-2,5-diazabicyclo[2.2.1]heptan-2-yl]pyrazolo[1,5-a][1,3,5]triazin-4-amine] yielded an IC50 (CDK12/CycK) greater than 20 µM and an IC50 (CDK2/CycE) of 5.78 µM.

`CN1CC2CN(c3nc(NCc4nc5ccccc5[nH]4)n4ncc(Br)c4n3)CC2C1` (stereo not drawn) [Example 240, N-(1H-benzimidazol-2-ylmethyl)-8-bromo-2-(2-methyl-1,3,3a,4,6,6a-hexahydropyrrolo[3,4-c]pyrrol-5-yl)pyrazolo[1,5-a][1,3,5]triazin-4-amine] was tested, and the IC50 (CDK12/CycK) was greater than 20 µM and the IC50 (CDK2/CycE) was 15.5 µM.

`Brc1cnn2c(NCc3nc4ccccc4[nH]3)nc(NCCN3CCCC3)nc12` [Example 235, N4-(1H-benzimidazol-2-ylmethyl)-8-bromo-N2-(2-pyrrolidin-1-ylethyl)pyrazolo[1,5-a][1,3,5]triazine-2,4-diamine] showed an IC50 (CDK12/CycK) greater than 20 µM and an IC50 (CDK2/CycE) greater than 20 µM.

In the case of `Fc1ccc2[nH]c(CNc3nc(N4CCNCC4)nc4c(C5CC5)cnn34)nc2c1` [Example 190, 8-cyclopropyl-N-[(5-fluoro-1H-benzimidazol-2-yl)methyl]-2-(piperazin-1-yl)pyrazolo[1,5-a][1,3,5]triazin-4-amine], the IC50 (CDK12/CycK) is reported as 6.17 µM and the IC50 (CDK2/CycE) is reported as greater than 20 µM.

Compound `Fc1ccc2[nH]c(CNc3nc(N4C[C@@H]5C[C@H]4CO5)nc4c(C5CC5)cnn34)nc2c1` [Example 185, 8-cyclopropyl-N-[(5-fluoro-1H-benzimidazol-2-yl)methyl]-2-[(1S,4S)-2-oxa-5-azabicyclo[2.2.1]heptan-5-yl]pyrazolo[1,5-a][1,3,5]triazin-4-amine] has an IC50 (CDK12/CycK) greater than 19.6 µM and an IC50 (CDK2/CycE) greater than 20 µM.

Work on `O[C@H]1CCN(c2nc(NCc3nc4ccccc4[nH]3)n3ncc(Br)c3n2)C1` [Example 224, (3S)-1-(4-{[(1H-benzimidazol-2-yl)methyl]amino}-8-bromopyrazolo[1,5-a][1,3,5]triazin-2-yl)pyrrolidin-3-ol] yielded an IC50 (CDK12/CycK) of 15.6 µM and an IC50 (CDK2/CycE) of 7.75 µM.

For `COc1cccc2[nH]c(CNc3nc(N4C[C@@H]5CCCN[C@@H]5C4)nc4c(C5CC5)cnn34)nc12` [Example 214, 8-cyclopropyl-N-[(4-methoxy-1H-benzimidazol-2-yl)methyl]-2-[(4aS,7aS)-octahydro-6H-pyrrolo[3,4-b]pyridin-6-yl]pyrazolo[1,5-a][1,3,5]triazin-4-amine], the IC50 (CDK12/CycK) was 8.09 µM and the IC50 (CDK2/CycE) was 17.7 µM.

`OC[C@@H]1CCCCN1c1nc(NCc2nc3cc(F)ccc3[nH]2)n2ncc(C3CC3)c2n1` [Example 191, [(2S)-1-(8-cyclopropyl-4-{[(5-fluoro-1H-benzimidazol-2-yl)methyl]amino}pyrazolo[1,5-a][1,3,5]triazin-2-yl)piperidin-2-yl]methanol] was tested, and the IC50 (CDK12/CycK) was 0.332 µM and the IC50 (CDK2/CycE) was 1.77 µM.

`Fc1ccc2[nH]c(CNc3nc(N4C[C@@H]5CCCN[C@@H]5C4)nc4c(C5CC5)cnn34)nc2c1F` [Example 171, 8-cyclopropyl-N-[(4,5-difluoro-1H-benzimidazol-2-yl)methyl]-2-[(4aS,7aS)-octahydro-6H-pyrrolo[3,4-b]pyridin-6-yl]pyrazolo[1,5-a][1,3,5]triazin-4-amine] was tested, and the IC50 (CDK12/CycK) was 6.56 µM and the IC50 (CDK2/CycE) was greater than 20 µM.

For `CC1CN(c2nc(NCc3nc4ccccc4[nH]3)n3ncc(C(C)C)c3n2)CCO1` (racemic) [Example 11, (rac)-N-[(1H-benzimidazol-2-yl)methyl]-2-[2-methylmorpholin-4-yl]-8-(propan-2-yl)pyrazolo[1,5-a][1,3,5]triazin-4-amine], the IC50 (CDK12/CycK) was 3.16 µM and the IC50 (CDK2/CycE) was 5.51 µM.

`CN(CCN1CCCC1)c1nc(NCc2nc3ccccc3[nH]2)n2ncc(Br)c2n1` [Example 239, N4-(1H-benzimidazol-2-ylmethyl)-8-bromo-N2-methyl-N2-(2-pyrrolidin-1-ylethyl)pyrazolo[1,5-a][1,3,5]triazine-2,4-diamine] gave an IC50 (CDK12/CycK) greater than 20 µM and an IC50 (CDK2/CycE) greater than 20 µM.

Compound `COc1ccc2[nH]c(CNc3nc(N4C[C@@H](C)N[C@@H](C)C4)nc4c(Br)cnn34)nc2c1` [Example 205, 8-bromo-2-[(3R,5S)-3,5-dimethylpiperazin-1-yl]-N-[(5-methoxy-1 H-benzimidazol-2-yl)methyl]pyrazolo[1,5-a][1,3,5]triazin-4-amine] has an IC50 (CDK12/CycK) of 7.97 µM and an IC50 (CDK2/CycE) greater than 20 µM.

`Fc1cccc2[nH]c(CNc3nc(N4C[C@@H]5C[C@H]4CO5)nc4c(C5CC5)cnn34)nc12` [Example 183, 8-cyclopropyl-N-[(4-fluoro-1H-benzimidazol-2-yl)methyl]-2-[(1S,4S)-2-oxa-5-azabicyclo[2.2.1]heptan-5-yl]pyrazolo[1,5-a][1,3,5]triazin-4-amine] gave an IC50 (CDK12/CycK) of 10.2 µM and an IC50 (CDK2/CycE) greater than 20 µM.

`Brc1cnn2c(NCc3nc4ccccc4[nH]3)nc(N3CCC4(CCCN4)C3)nc12` (stereo not drawn) [Example 215, N-(1H-benzimidazol-2-ylmethyl)-8-bromo-2-(1,7-diazaspiro[4.4]nonan-7-yl)pyrazolo[1,5-a][1,3,5]triazin-4-amine] showed an IC50 (CDK12/CycK) greater than 20 µM and an IC50 (CDK2/CycE) of 8.98 µM.

With `Fc1ccc2[nH]c(CNc3nc(N4CCOCC4)nc4c(C5CC5)cnn34)nc2c1F` [Example 172, 8-cyclopropyl-N-[(4,5-difluoro-1H-benzimidazol-2-yl)methyl]-2-(morpholin-4-yl)pyrazolo[1,5-a][1,3,5]triazin-4-amine] the IC50 (CDK12/CycK) was 0.641 µM and the IC50 (CDK2/CycE) was greater than 20 µM.

For `C[C@@H]1CN(c2nc(NCc3nc4ccccc4[nH]3)n3ncc(Br)c3n2)CCN1` [Example 168, N-[(1H-benzimidazol-2-yl)methyl]-8-bromo-2-[(3R)-3-methylpiperazin-1-yl]pyrazolo[1,5-a][1,3,5]triazin-4-amine], the IC50 (CDK12/CycK) was 5.78 µM and the IC50 (CDK2/CycE) was 12.3 µM.

Compound `OC[C@@H]1CCCCN1c1nc(NCc2nc3c(F)c(F)ccc3[nH]2)n2ncc(C3CC3)c2n1` [Example 184, [(2S)-1-(8-cyclopropyl-4-{[(4,5-difluoro-1H-benzimidazol-2-yl)methyl]amino}pyrazolo[1,5-a][1,3,5]triazin-2-yl)piperidin-2-yl]methanol] has an IC50 (CDK12/CycK) of 0.0132 µM and an IC50 (CDK2/CycE) of 2.72 µM.
